# Like-named read-outs stand apart in the source and are kept apart here.
# Tested on: yeast-induced pyrexia
# Test: Antipyretic activity to the yeast-treated rats (Experiment I)
# Assay type: in vivo, rats (Wistar strain male)
# Conditions: for minimal effective dose: Rattus norvegicus, po
# Protocol: To Wistar strain male rats having about 300 - 350 grs. body weight, an aqueous suspension of yeast was subcutaneously injected to induce pyrexia.
# At the lapse of 4 hours since the dose of the yeast suspension, the compounds under test given in hereinaftermentioned Table 10 in a form of suspension in a 5% gum arabic aqueous solution are orally administered. The rectal temperatures of the rats were measured periodically by means of a thermister-type thermometer sold by Japan Koden K.K. As control, said 5% gum arabic aqueous solution alone was administered.
compound,measurement,setting,value
"CC(C(=O)O)c1cccc(Oc2ccccc2Cl)c1 (stereo not shown) [Compound (5), 2-[m-(o-chlorophenoxy)phenyl]propionic acid]",body temperature relative to normal (in words),80 and 160 mg/kg p.o.,no body temperatures lower than the normal body temperatures
same,"Change in rectal temperature, mean ± S.E.","1 hr, 1.25 mg/kg p.o.",+0.25 ± 0.09
same,"Change in rectal temperature, mean ± S.E.","1 hr, 5 mg/kg p.o.",-0.15 ± 0.13
same,"Change in rectal temperature, mean ± S.E.","1 hr, 20 mg/kg p.o.",-0.53 ± 0.10
same,"Change in rectal temperature, mean ± S.E.","1 hr, 80 mg/kg p.o.",-0.55 ± 0.13
same,"Change in rectal temperature, mean ± S.E.","1 hr, 160 mg/kg p.o.",-0.48 ± 0.14
same,"Change in rectal temperature, mean ± S.E.","3 hrs, 1.25 mg/kg p.o.",+0.03 ± 0.21
same,"Change in rectal temperature, mean ± S.E.","3 hrs, 5 mg/kg p.o.",-0.30 ± 0.17
same,"Change in rectal temperature, mean ± S.E.","3 hrs, 20 mg/kg p.o.",-0.90 ± 0.10
same,"Change in rectal temperature, mean ± S.E.","3 hrs, 80 mg/kg p.o.",-0.83 ± 0.09
same,"Change in rectal temperature, mean ± S.E.","3 hrs, 160 mg/kg p.o.",-0.90 ± 0.17
same,"Change in rectal temperature, mean ± S.E.","5 hrs, 1.25 mg/kg p.o.",+0.13 ± 0.15
same,"Change in rectal temperature, mean ± S.E.","5 hrs, 5 mg/kg p.o.",-0.25 ± 0.16
same,"Change in rectal temperature, mean ± S.E.","5 hrs, 20 mg/kg p.o.",-0.70 ± 0.27
same,"Change in rectal temperature, mean ± S.E.","5 hrs, 80 mg/kg p.o.",-0.65 ± 0.16
same,"Change in rectal temperature, mean ± S.E.","5 hrs, 160 mg/kg p.o.",-1.03 ± 0.19
same,minimal effective dose,"1 h, p.o., compound (5): at one hour lapse, read-out: dose with significant antipyretic activity",5 mg/kg
same,minimal effective dose,read-out: dose with tendency of an antipyretic activity,1.25 mg/kg
same,dose with maximum antipyretic activity,p.o.,20 mg/kg
